Test system: fecundity of hamsters
Assay: standardized test for capacity to inhibit the fecundity of hamsters (implantation rate)
Assay type: in vivo, Syrian golden hamsters
Protocol: The contraceptive utility of the instant compounds is evident from the results of a standardized test for their capacity to inhibit the fecundity of hamsters. In this test, sexually-mature female Syrian golden hamsters weighing at least 105 g are mated; and to each of a group of 5 is administered, daily for 5 days beginning on the first day sperm appears in the vagina between 8:15 and 10:00 a.m., test compound dissolved or suspended in an inert vehicle. The initial daily dose is ordinarily 50 mg/kg in 0.2 ml of corn oil, subcutaneously or intragastrically. A group of such animals to which is likewise administered vehicle alone serves as controls. Approximately 48 hr. after the 5th dose, the animals are sacrificed and their uteri and ovaries inspected for implantation sites and corpora lutea. If the total number of the former divided by the total number of the later (i.e., the implantation rate) affords a value amounting to 0.5 or less, the compound is considered to inhibit fecundity in the foregoing test. The ED50 of such a compound is determined by repeating the test at appropriate doosage(s). Potency is expressed as the ratio of the ED50 of estrone to that of compound.

[1] = mated female Syrian golden hamsters, 10 mg/kg subcutaneously in corn oil, daily for 5 days

## CCCCC[C@H](O)/C=C/C1C(C/C=C\CCCC(=O)OC)C(=O)C2OC(=O)OC21 (stereo partly drawn) [Example 1, methyl 7-[tetrahydro-4-(3S-hydroxy-1E-octenyl)-2,6-dioxo-4H-cyclopenta-1,3-dioxol-5-yl]-5Z-heptenoate]
Mesocricetus auratus, 120 h, mated female Syrian golden hamsters, daily for 5 days, read-out: ED50 (inhibition of fecundity)
  ED50: 5.6 mg/kg
[1]
  implantation rate (total implantation sites divided by total corpora lutea): 0.16
  inhibition of fecundity (implantation rate 0.5 or less): inhibited fecundity
Relative to estrone, hamster fecundity test
  potency (ratio of the ED50 of estrone to that of compound): approximately 1%
